Assay results from patent US8097422B2, “Kir channel modulators” (Salk Institute for Biological Studies, priority 2007, dated 2012).

Experiments:
[1] = molecular target: T1, GIRK2 channel (wild type) (Mus musculus, UniProt P48542); assay: whole-cell patch clamp, HEK293T cells transfected with GIRK2; type: cell-based; settings: for desensitization of induced GIRK2 current in cells co-transfected with M2R and myristylated-phosducin / activation of wildtype GIRK2, percentage change from Ba++ sensitive basal current: 100 mM alcohols; for desensitization of induced GIRK2 current in cells co-transfected with M2R and myristylated-phosducin: 5 uM Carbachol
T1 construct: expressed in transfected cells; host or cells: HEK293T
T1 sequence (P48542 1-425): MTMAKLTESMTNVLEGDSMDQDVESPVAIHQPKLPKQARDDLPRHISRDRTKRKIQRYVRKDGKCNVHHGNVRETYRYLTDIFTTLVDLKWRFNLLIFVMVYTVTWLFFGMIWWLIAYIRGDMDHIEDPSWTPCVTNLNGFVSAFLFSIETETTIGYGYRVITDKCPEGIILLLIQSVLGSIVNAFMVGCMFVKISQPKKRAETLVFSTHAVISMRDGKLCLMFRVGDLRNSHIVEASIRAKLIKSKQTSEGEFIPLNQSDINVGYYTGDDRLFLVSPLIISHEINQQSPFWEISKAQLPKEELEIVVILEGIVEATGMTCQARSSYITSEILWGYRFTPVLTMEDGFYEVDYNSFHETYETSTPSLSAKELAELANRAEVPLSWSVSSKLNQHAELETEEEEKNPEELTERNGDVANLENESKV
Text: GIRK2c, GIRK4, IRK1, M2R and m-Phosducin were subcloned into PCDNA3.1 vector (Invitrogen). Point mutations were introduced by Quickchange site directed mutagenesis kit (Stratagene). The GIRK2 PIP mutant was generated by overlap-PCR method. Briefly, amino acid 216-NLRKSHL-222 (SEQ ID NO: 25) of IRK1 was swapped into 228-DLRNSHL-234 (SEQ ID NO: 26) of GIRK2, in the region designated βC-βD loop in the crystal structure. Mutations were confirmed by automated DNA sequencing methods.
HEK 293T cells were cultured in DMEM supplemented with 10% FBS, and 1× Glutamax (Invitrogen) in a humidified 37° incubator with 5% CO2. Cells were plated in a 12 well dish, and were transiently transfected using Lipofectamine 2000 (Invitrogen). After 12-24 hrs, cells were re-plated to 12-mm glass coverslips coated with poly-D-Lysine (20 microgram/ml).
HEK293 cells were transfected with 0.2 micrograms of channel cDNA. The cells were co-transfected with 0.04 micrograms of eYFP cDNA to identify transfected cells. 0.8 micrograms of Muscarinic Receptor 2 (M2R) was also co-transfected for experiments with Carbachol. For experiments with and without m-phosducin, 0.8 ug of m-phosducin cDNA was used versus a PCDNA3.1 vector control.
Whole-cell patch clamp recordings were performed 24-72 hrs after transfection. Borosilicate glass electrodes (Warner Instruments) of […] filled with intracellular solution (130 mM KCl, 20 mM NaCl, 5 mM EGTA, 2.56 mM K2ATP, 5.46 mM MgCl2, 0.30 mM Li2GTP, and 10 mM HEPES (pH 7.4)) was used. Membrane currents were recorded using Axopatch 200B (Axon Instruments) amplifier, adjusted electronically for cell capacitance and series resistance (80-100%), filtered at 1 kHz with an 8-pole Bessel filter and digitized at 5 kHz with a Digidata 1200 interface (Axon Instruments). The cells rapidly perfused with a 20 mM K^+ (20K) solution (20 mM KCl, 140 mM NaCl, 0.5 mM CaCl2, 2 mM MgCl2 and 10 mM HEPES (pH7.4)). Alcohols, 5 μM Carbachol, and 1 mM BaCl2 (diluted in 20K solution) were applied from outside the cell with the rapid perfusion system (Warner Instruments). Whole-cell currents were measured using a ramp protocol that holds at −40 mV, steps to −100 mV then ramps to +50 mV and repeats every 2 seconds. Current-voltage relationships also were obtained from the ramp protocol. This protocol was used to measure the inwardly rectifying currents at −100 mV and to ensure stability of recording by monitoring a reversal potential and inward rectification. Current density was measured by dividing inward current at −100 mV by membrane capacitance that was compensated during the recording. Basal currents were measured as the Ba^++ blocked inward currents at −100 mV. Alcohol and Carbachol modulated currents were measured by averaging two consecutive current readings upon reaching steady state, and subtracting the averaged basal current before and after the application of modulator. Pooled data are presented as Mean±SEM and evaluated for statistical significance by a 1-way ANOVA, followed by Bonferroni's multiple comparison post-hoc test.

[2] = molecular target: T2, GIRK4* Leu252 to Ala mutant channel (Rattus norvegicus, UniProt P48548, L252A/S143T); assay: whole-cell patch clamp, GIRK4* L252A mutant channel; type: cell-based; settings: for percent activation of GIRK4* Leu252 to Ala mutant: n=8
T2 construct: expressed in transfected cells; host or cells: HEK293 / HEK293T
T2 sequence (P48548 1-419 S143T/L252A): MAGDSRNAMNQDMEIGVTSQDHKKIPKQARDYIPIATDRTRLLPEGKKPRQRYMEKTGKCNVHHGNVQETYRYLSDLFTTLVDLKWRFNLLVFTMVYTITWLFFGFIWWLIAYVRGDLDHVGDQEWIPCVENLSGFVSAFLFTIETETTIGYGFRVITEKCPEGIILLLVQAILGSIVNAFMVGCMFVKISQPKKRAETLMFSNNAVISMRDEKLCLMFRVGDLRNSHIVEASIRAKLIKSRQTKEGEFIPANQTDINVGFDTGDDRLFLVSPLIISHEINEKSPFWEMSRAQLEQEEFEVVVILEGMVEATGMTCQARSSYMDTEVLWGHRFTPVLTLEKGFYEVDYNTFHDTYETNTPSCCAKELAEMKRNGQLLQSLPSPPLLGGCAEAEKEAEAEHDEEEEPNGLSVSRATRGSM
Method: Point mutations were introduced by Quickchange site directed mutagenesis kit (Stratagene). The GIRK2 PIP mutant was generated by overlap-PCR method. […] Mutations were confirmed by automated DNA sequencing methods. […] Cells were plated in a 12 well dish, and were transiently transfected using Lipofectamine 2000 (Invitrogen). After 12-24 hrs, cells were re-plated to 12-mm glass coverslips coated with poly-D-[…] microgram/ml). […] The cells were co-transfected with 0.04 micrograms of eYFP cDNA to identify transfected cells. 0.8 micrograms of Muscarinic Receptor 2 (M2R) was also co-transfected for experiments with Carbachol. […] Whole-cell patch clamp recordings were performed 24-72 hrs after transfection. […] Alcohols, 5 μM Carbachol, and 1 mM BaCl2 (diluted in 20K solution) were applied from outside the cell with the rapid perfusion system (Warner Instruments). […] Current-voltage relationships also were obtained from the ramp protocol. This protocol was used to measure the inwardly rectifying currents at -100 mV and to ensure stability of recording by monitoring a reversal potential and inward rectification. […] Alcohol and Carbachol modulated currents were measured by averaging two consecutive current readings upon reaching steady state, and subtracting the averaged basal current before and after the application of modulator.

| Molecule | percent change of basal current, GIRK2 (positive = activation) ([1]; 100 mM MPD, -100 mV, n=5) | desensitization of induced GIRK2 current in cells co-transfected with M2R and myristylated-phosducin [1] | activation of wildtype GIRK2, percentage change from Ba++ sensitive basal current ([1]; n=32) | concentration inducing a noticeable activation of GIRK currents ([1]; dose response, GIRK2) | percent activation of GIRK4* Leu252 to Ala mutant [2] | G-protein activation of wildtype GIRK2 by Carbachol, percentage change from basal current ([1]; 5 μM Carbachol, M2R co-transfected, n=32) | Carb (G-protein mediated) activation, GIRK4* L252 Ala ([2]; 5 μM Carbachol) |
| --- | --- | --- | --- | --- | --- | --- | --- |
| CC(O)CC(C)(C)O (racemic) [MPD, 2-methyl-2,4-pentanediol] | 246±26.7% | no desensitization | 305±19% | 10 mM | 179±22% |  |  |
| C[N+](C)(C)CCOC(N)=O [Carbachol] |  | rapid activation and desensitization |  |  |  | 928±141% | 51±8% |
| 1-propanol [1-PrOH] |  | no desensitization | 486±34% |  | 86±8% |  |  |
| CCO [EtOH, ethanol] |  | no desensitization | 119±5% |  |  |  |  |
